Measured values: PMC9886892, “Imidazolium salts as an alternative for anti-Leishmania drugs: Oxidative and immunomodulatory activities” (Frontiers in Immunology, 2023)
Like-named read-outs stand apart in the source and are kept apart here.

Legend:
[1] = in vitro; details: mouse; for CC50 at 48 h: CC50 (CI 95%): concentration of compound that causes 50% of macrophage mortality
[2] = tested on: L. amazonensis amastigotes in RAW 264.7 macrophages; experiment: Intramacrophage anti-amastigote activity; assay type: cell-based, Leishmania (L.) amazonensis
Description: The anti-amastigote assay was performed as previously described ([13]). Macrophages RAW 264.7 cell line (ATCC) were cultured in DMEM plus 10% fetal bovine serum (FBS), penicillin (100 U/mL) and streptomycin (100 µg/mL) until reaching 90% confluence, when were distributed into 96-well microplates at a concentration of 2 x 10^5 cells/well in the presence of DMEM. […] The leishmanicidal activity of macrophages was assessed by determining the number of viable parasites (4 replicates) using a hemocytometer.

[3] = tested on: human erythrocytes; details: for RBC50 (CI 95%): concentration of compound that causes 50% of red blood cell hemolysis: 60 min
Description: Triton X-100 1% was used as positive control. The hemolytic assay was performed according to the procedure used by ([13]). […] The microplate was incubated at 37°C under agitation (90 rpm) for 60 min. Then, the suspension was centrifuged at 3,000 rpm for 5 min, and the absorbance of the supernatant was measured at 540 nm using a spectrophotometer EZ Read 400 from Biochrom. Triton X-100 1% and PBS were used as positive and negative control, respectively. […] The selectivity index (SI) (CC50 or RBC50/IC50 against L. amazonensis) were determined for each compound.

[4] = tested on: L. amazonensis promastigotes; experiment: Mitochondrial membrane potential (rhodamine 123, flow cytometry); assay type: cell-based, Leishmania (L.) amazonensis; details: IS 2-fold IC50, 6 h; amphotericin B 0.4 µM; hydrogen peroxide 2 mM
From the text: A total of 30,000 events were acquired in the region that corresponded to the parasites. Histograms were build using the CellQuest Pro software (Joseph Trotter, Scripps Research Institute, La Jolla, CA, USA).

[5] = tested on: Macrophages RAW 264.7 cell line
[6] = tested on: L. infantum chagasi promastigotes; experiment: microbe, parasite or virus in culture; details: Leishmania infantum; for IC50: 48 h, read-out: IC50 (CI 95%): concentration of compound that causes 50% of L. infantum chagasi promastigotes mortality, promastigotes, 48 h, MTT
Description: (§1) Subsequently, 0.5 mg/mL of 3-(4,5-dimethylthiazol-2-yl)-2,5-diphenyltetrazolium bromide (MTT, Sigma-Aldrich®, St. Louis, MO, USA) was added and the incubations continued for an additional 4 h at 26 °C. The purple formazan product that was formed by the action of mitochondrial enzymes in living cells was solubilized by the addition of acidic isopropanol, and the absorbance at 570 nm was measured using a microplate reader spectrophotometer EZ Read 400 from Biochrom. […] The 50% inhibitory concentration (IC50) value for each compound was determined. The survival rate was calculated according to the formula: OD in treated group/OD of untreated group x 100. The 50% inhibitory concentration (IC50) value for each compound was determined by nonlinear regression analysis using GraphPad Prism 5.03 software.

[7] = tested on: L. amazonensis promastigotes; details: for L. amazonensis mortality in the screening test: 100 µM screening concentration
Description: as §1

[8] = tested on: L. amazonensis promastigotes; experiment: microbe, parasite or virus in culture; details: Leishmania amazonensis, 48 h, read-out: mortality of L. amazonensis promastigotes, 5 µM, 48 h
Description: as §1

[9] = tested on: L. amazonensis promastigotes; parameters: method as in PMID 30077823; details: read-out: IC50 for L. amazonensis promastigotes (previous study); cited from earlier work
[10] = tested on: L. infantum chagasi promastigotes; details: read-out: IC50 (CI 95%): concentration of compound that causes 50% of L. infantum chagasi promastigotes mortality, 48 h, MTT
Description: as §1

[11] = tested on: L. amazonensis promastigotes; experiment: Detection of reactive oxygen species production (DCF-DA, flow cytometry); assay type: cell-based, Leishmania (L.) amazonensis; details: IS 2-fold IC50, 6 h; amphotericin B 0.4 µM; hydrogen peroxide 2 mM
Description: ROS generation was quantified using the dye 2′,7′-dichlorofluorescein diacetate (DCF-DA, Sigma-Aldrich) and flow cytometer analysis ([13], [30], [31]). […] Then, cells were washed with PBS and incubated with 0.5 mL of 10 µM DCF-DA for 30 min at room temperature. After being washed with PBS, cells were resuspended in 0.5 mL PBS and analysed using a BD FACSCalibur (Becton–Dickinson, Rutherford, NJ, USA) flow cytometer and CellQuest Pro software (Joseph Trotter, Scripps Research Institute, La Jolla, CA, USA) using the blue argon-ion 488 nm laser with the FL1 filter channel. A total of 30,000 events were acquired in the region that corresponded to living parasite.

[12] = Leishmania amazonensis, RAW264.7, 48 h, read-out: IC50 (CI 95%): concentration of compound that causes 50% of L. amazonensis amastigotes mortality, infected RAW 264.7 macrophages, 48 h

Question: For `CCCCCCCCCCn1cc[n+](CCCCCCCCCC)c1C.[Cl-]` [(C10)2MImCl, 1,3-Didecyl-2-methylimidazolium chloride], which viability at 48 h [1] is on record?
Answer: 94%

Question: And the CC50 at 48 h ([1]; RAW cells, 48 h, MTT)?
Answer: 16.4 µM

Question: What about the IC50 [2, 12] of the same compound?
Answer: 200 nM

Question: And the “SI: selectivity index, ratio of CC50 for RBC hemolysis/IC50 for L. amazonensis amastigotes” value [3]?
Answer: 105

Question: And the “SI: selectivity index, ratio of CC50 for RBC hemolysis/IC50 for L. amazonensis promastigotes” value [3]?
Answer: 11

Question: What about the “RBC50 (CI 95%): concentration of compound that causes 50% of red blood cell hemolysis” value (shortened to “RBC50 (CI 95%): concentration”) ([3]; human red blood cells, 37°C) of the same compound?
Answer: 20.9 (20-21.9) µM

Question: What about the “mitochondrial membrane potential (ΔΨm) alteration” value [4] of the same compound?
Answer: significant ΔΨm depolarization

Question: And the “SI: selectivity index, ratio of CC50 for macrophage/IC50 for L. amazonensis amastigotes” value [5]?
Answer: 82

Question: What about the “SI: selectivity index, ratio of CC50 for macrophage/IC50 for L. amazonensis promastigotes” value [5] of the same compound?
Answer: 8.6

Question: What about the IC50 [6] of the same compound?
Answer: 16.5 µM

Question: And the IC50 [7]?
Answer: 1.9 µM

Question: And the “L. amazonensis mortality in the screening test” value (“L. amazonensis mortality” for short) ([7]; 48 h)?
Answer: 100%

Question: And the mortality at 5 µM [8]?
Answer: 97%

Question: Which “L. amazonensis mortality” value ([7]; 48 h) does the source give for `CCCCn1cc[n+](C)c1.CS(=O)(=O)[O-]` [C4MImMeS, 1-Butyl-3-methylimidazolium methanesulfonate] here?
Answer: without activity

Question: For `CCCCCCCCCCn1cc[n+](C)c1` [C10MImCl, 1-decyl-3-methylimidazolium chloride], which IC50 [6] is on record?
Answer: 115 µM

Question: And the IC50 [9]?
Answer: 2310 nM

Question: Which viability at 48 h [1] does the source give for `CCCCCCCCCCn1cc[n+](C)c1.CS(=O)(=O)[O-]` [C10MImMeS, 1-decyl-3-methylimidazolium methanesulfonate] here?
Answer: 89%

Question: And the CC50 at 48 h ([1]; RAW cells, 48 h, MTT)?
Answer: 76.9 µM

Question: And the IC50 [2, 12]?
Answer: 300 nM

Question: What about the “SI: selectivity index, ratio of CC50 for RBC hemolysis/IC50 for L. amazonensis promastigotes” value [3] of the same compound?
Answer: > 8.6

Question: And the “concentration up to which no significant hemolysis” value ([3]; human erythrocytes)?
Answer: up to 40 µM

Question: And the “RBC50 (CI 95%): concentration” value ([3]; human red blood cells, 37°C)?
Answer: > 100 µM

Question: What about the “mitochondrial membrane potential (ΔΨm) alteration” value [4] of the same compound?
Answer: ΔΨm hyperpolarization

Question: And the “SI: selectivity index, ratio of CC50 for macrophage/IC50 for L. amazonensis amastigotes” value [5]?
Answer: 256

Question: What about the “SI: selectivity index, ratio of CC50 for macrophage/IC50 for L. amazonensis promastigotes” value [5] of the same compound?
Answer: 6.6

Question: And the “concentration up to which more than 90% of the macrophages kept alive” value ([5]; mouse, 48 h)?
Answer: up to 50 µM

Question: And the IC50 [7]?
Answer: 11.6 µM

Question: What about the “L. amazonensis mortality” value ([7]; 48 h) of the same compound?
Answer: 100%

Question: And the IC50 [10]?
Answer: > 100 µM

Question: And the mortality at 5 µM [8]?
Answer: 60%

Question: With `CCCCCCCCCCCCCCCCn1ccnc1` [C16Im, 1-hexadecylimidazole] as the compound, how does the CC50 at 48 h [1] read?
Answer: 54.9 µM

Question: And the IC50 [2, 12]?
Answer: 200 nM

Question: And the “SI: selectivity index, ratio of CC50 for RBC hemolysis/IC50 for L. amazonensis amastigotes” value [3]?
Answer: > 500

Question: What about the “SI: selectivity index, ratio of CC50 for RBC hemolysis/IC50 for L. amazonensis promastigotes” value [3] of the same compound?
Answer: > 6.8

Question: And the “RBC50 (CI 95%): concentration” value ([3]; human)?
Answer: > 100 µM

Question: What about the “SI: selectivity index, ratio of CC50 for macrophage/IC50 for L. amazonensis amastigotes” value [5] of the same compound?
Answer: 275

Question: And the “SI: selectivity index, ratio of CC50 for macrophage/IC50 for L. amazonensis promastigotes” value [5]?
Answer: 3.8

Question: What about the IC50 [6] of the same compound?
Answer: 8.3 µM

Question: What about the “L. amazonensis mortality” value ([7]; 48 h) of the same compound?
Answer: 100%

Question: And the “concentration causing significant parasite mortality” value ([7]; L. amazonensis promastigotes, 48 h)?
Answer: ≥ 10 µM

Question: Which CC50 at 48 h ([1]; RAW cells, 48 h, MTT) does the source give for `CCCCCCCCCCCCCCCCn1cc[n+](C)c1C.[Cl-]` [C16M2ImCl, 1-hexadecyl-2,3-dimethylimidazolium chloride] here?
Answer: 19.8 µM

Question: What about the IC50 [2, 12] of the same compound?
Answer: 200 nM

Question: What about the “SI: selectivity index, ratio of CC50 for RBC hemolysis/IC50 for L. amazonensis amastigotes” value [3] of the same compound?
Answer: 108

Question: And the “SI: selectivity index, ratio of CC50 for RBC hemolysis/IC50 for L. amazonensis promastigotes” value [3]?
Answer: 5.3

Question: What about the “RBC50 (CI 95%): concentration” value ([3]; human) of the same compound?
Answer: 21.6 (20.8-22.5) µM

Question: And the “mitochondrial membrane potential (ΔΨm) alteration” value [4]?
Answer: significant ΔΨm depolarization

Question: And the “SI: selectivity index, ratio of CC50 for macrophage/IC50 for L. amazonensis amastigotes” value [5]?
Answer: 99

Question: What about the “SI: selectivity index, ratio of CC50 for macrophage/IC50 for L. amazonensis promastigotes” value [5] of the same compound?
Answer: 4.8

Question: What about the IC50 [6] of the same compound?
Answer: 15.4 µM

Question: What about the IC50 [7] of the same compound?
Answer: 4.1 µM

Question: What about the “L. amazonensis mortality” value ([7]; 48 h) of the same compound?
Answer: 100%

Question: What about the mortality at 5 µM [8] of the same compound?
Answer: 85%

Question: What does the source list for `CCCCCCCCCCCCCCCCn1cc[n+](C)c1.[Br-]` [C16MImBr, 1-hexadecyl-3-methylimidazolium bromide]?
Answer: CC50 at 48 h ([1]; RAW cells, 48 h, MTT): 16 µM; IC50 ([2]; read-out: IC50 (CI 95%): concentration of compound that causes 50% of L. amazonensis amastigotes mortality, infected RAW 264.7 macrophages, 48 h): 200 nM; SI: selectivity index, ratio of CC50 for RBC hemolysis/IC50 for L. amazonensis amastigotes [3]: 114; SI: selectivity index, ratio of CC50 for RBC hemolysis/IC50 for L. amazonensis promastigotes [3]: 3.8; RBC50 (CI 95%): concentration of compound that causes 50% of red blood cell hemolysis ([3]; human red blood cells, 37°C): 22.8 (21.7-24) µM; mitochondrial membrane potential (ΔΨm) alteration [4]: significant ΔΨm depolarization; SI: selectivity index, ratio of CC50 for macrophage/IC50 for L. amazonensis amastigotes [5]: 80; SI: selectivity index, ratio of CC50 for macrophage/IC50 for L. amazonensis promastigotes [5]: 2.7; IC50 [7]: 6 µM; mortality of L. amazonensis promastigotes ([7]; 5 µM, 48 h): 42%; L. amazonensis mortality in the screening test ([7]; 48 h): 100%; IC50 [10]: 29.7 µM

Question: For `CCCCCCCCCCCCCCCCn1cc[n+](C)c1` [C16MImCl, 1-hexadecyl-3-methylimidazolium chloride], which IC50 [10] is on record?
Answer: 9.9 µM

Question: What about the IC50 [9] of the same compound?
Answer: 1230 nM

Question: Which IC50 [9] does the source give for `CCCCCCCCCCCCCCCCn1cc[n+](C)c1` [C16MImNTf2, 1-hexadecyl-3-methylimidazolium bis(trifluoromethylsulfonyl)imide] here?
Answer: 1640 nM

Question: With `CCCCCCCCCCCCCCCCn1cc[n+](C)c1` [C16MImPF6, 1-hexadecyl-3-methylimidazolium hexafluorophosphate] as the compound, how does the CC50 at 48 h [1] read?
Answer: 16.8 µM

Question: What about the IC50 [2, 12] of the same compound?
Answer: 300 nM

Question: What about the “SI: selectivity index, ratio of CC50 for RBC hemolysis/IC50 for L. amazonensis amastigotes” value [3] of the same compound?
Answer: 82.7

Question: What about the “SI: selectivity index, ratio of CC50 for RBC hemolysis/IC50 for L. amazonensis promastigotes” value [3] of the same compound?
Answer: 3.6

Question: What about the “RBC50 (CI 95%): concentration” value ([3]; human) of the same compound?
Answer: 24.8 (22.9-26.8) µM

Question: What about the “mitochondrial membrane potential (ΔΨm) alteration” value [4] of the same compound?
Answer: significant ΔΨm depolarization

Question: And the “SI: selectivity index, ratio of CC50 for macrophage/IC50 for L. amazonensis amastigotes” value [5]?
Answer: 56

Question: And the “SI: selectivity index, ratio of CC50 for macrophage/IC50 for L. amazonensis promastigotes” value [5]?
Answer: 2.4

Question: And the IC50 [7]?
Answer: 6.9 µM

Question: What about the “L. amazonensis mortality” value ([7]; 48 h) of the same compound?
Answer: 100%

Question: What about the IC50 [10] of the same compound?
Answer: 26.3 µM

Question: And the mortality at 5 µM [8]?
Answer: 37%

Question: With `CCCCCCCCCCCCCCCC[n+]1ccccc1.O.[Cl-]` [C16PyrCl, 1-hexadecylpyridinium chloride monohydrate, reference compound] as the compound, how does the “L. amazonensis mortality” value ([7]; 48 h) read?
Answer: 100%

Question: Which “mitochondrial membrane potential (ΔΨm) alteration” value [4] does the source give for `OO` [H2O2, hydrogen peroxide, reference compound] here?
Answer: mitochondrial depolarization

Question: What about the ROS production [11] of the same compound?
Answer: significant elevation in ROS production

Question: For `C[C@@H]1[C@H](O)[C@@H](C)/C=C/C=C/C=C/C=C/C=C/C=C/C=C/[C@H](O[C@@H]2O[C@H](C)[C@@H](O)[C@H](N)[C@@H]2O)C[C@@H]2O[C@](O)(C[C@@H](O)C[C@@H](O)[C@H](O)CC[C@@H](O)C[C@@H](O)CC(=O)O[C@H]1C)C[C@H](O)[C@H]2C(=O)O` [amphotericin B, reference compound], which “mitochondrial membrane potential (ΔΨm) alteration” value [4] is on record?
Answer: mitochondrial depolarization

Question: What about the ROS production [11] of the same compound?
Answer: significant elevation in ROS production

Question: What about the mortality at 5 µM ([6]; read-out: mortality of L. infantum chagasi promastigotes) of the same compound?
Answer: 100%

Question: And the IC50 [7]?
Answer: 0.4 µM

Question: What about the mortality at 5 µM [8] of the same compound?
Answer: 100%
